{"source": "patent US4562206A", "about": "“Orally effective inotropic compounds” (Key Pharmaceuticals, Inc., priority 1984, dated 1985)", "key": {"[1]": {"system": "cardiac contractility", "test": "Intravenous infusion rates required to increase cardiac contractility by 50%, anesthetized dogs", "format": "in vivo"}, "[2]": {"test": "Blood (plasma) levels during intravenous infusion in anesthetized dog, HPLC with electrochemical detection", "format": "in vivo", "conditions": "i.v. infusion 20 ug/kg/min; for concentration at 10 min / concentration at 20 min / concentration at 0.5 h: plasma, iv; for concentration at 10 min: infusion time 10 mins; for concentration at 20 min: infusion time 20 mins; for concentration at 0.5 h: infusion time 30 mins", "method": "The data in Table 1 were obtained from a dog anesthetized with sodium pentobarbital (30 mg/kg, i.v.). The right femoral vein was cannulated for administration of drug and the left femoral vein was used for withdrawal of blood samples. All blood samples were collected in heparinized chilled tubes. The blood was centrifuged to separate red cells and the plasma was frozen.\nAfter obtaining a control blood sample, dobutamine infusion at the rate of 20 ug/kg/min was maintained for 30 mins. During the infusion, blood samples were drawn at 10, 20, and 30 mins. One hour after completion of the dobutamine infusion, a second control sample of blood was drawn and an infusion of Compound I at 20 ug/kg/min was begun. Samples of blood were taken during the Compound I infusion at 10, 20, and 30 mins.\nThe concentrations of Compound I and dobutamine in plasma were measured using HPLC with electrochemical detection. Chromatography was performed using a reverse-phase octadecylsilane (C18) column attached to an amperometric detector equipped with a glassy carbon electrode at a potential of +600 mV. The mobile phase consisted of acetonitrile:pH 3 buffer (15:85); the buffer (pH 3) contained 0.035M KH2 PO4, 0.003M citric acid and 0.002M Na2 EDTA. At a flow rate of 1.5 ml/min, Compound I, dobutamine and the internal standard for the assay (dioxymethylene derivative of dobutamine) eluted in […] respectively.\nIn the assay procedure, control plasma (1 mil) spiked with 0, 20, 100, 300 and 500 ng/ml test drug was added to silanized glass tubes (13×128 mm) containing 100 ng of the internal standard as a solution in 100 ul of 5M K2 HPO4. The samples were mixed and extracted twice with 4 ml of ethyl acetate. Following centrifugation, the combined organic extracts were evaporated, the residue dissolved in […] of mobile phase and a 10-15 ul aliquot injected into the chromatograph. Calibration curves were constructed by plotting the peak height ratios of test drug to the internal standard over the concentration range and interpolation of unknown plasma concentrations from the fitted line."}, "[3]": {"system": "cardiac contractility", "test": "Cardiac contractility (inotropic effect), intravenous infusion, anesthetized open-chest dogs, strain gauge arch on right ventricle", "format": "in vivo", "conditions": "for Inotropic Potency Relative to Dobutamine, Mean ± S.E.: i.v. infusion, based on CC50 (rate that increases contractility by 50%)", "method": "(§1) The data in FIGS. 1 and 2 and Table 2 were obtained on dogs anesthetized with sodium pentobarbital (30 mg/kg, i.v.). The animals were placed on artificial respiration and the chest was opened to expose the heart. A Walton-Brodie strain gauge arch was sutured to the right ventricle for measurement of cardiac contractility. Arterial blood pressure was measured from a catheter placed in the abdominal aorta. Cardiac contractility and arterial pressure were recorded continuously on a Grass polygraph. All drugs were dissolved and infused intravenously in 0.9% NaCl solution."}, "[4]": {"system": "left ventricular dP/dt", "test": "Inotropic response (left ventricular dP/dt) after buccal administration, anesthetized dogs", "format": "in vivo", "text": "The dogs were anesthetized with sodium pentobarbital as described above and a Millar® transducer-tip catheter positioned in the left ventircle after introduction through the left carotid artery. Left ventricular pressure was obtained from this catheter and electronically differentiated to obtain dP/dt.\nThe dogs were placed on their backs, and their heads and noses positioned so that their hard palates were level. After an appropriate period to collect control dP/dt values, the test drug was applied to the hard palate. The test drugs were made up in a solution of 50% ethanol in distilled water adjusting concentrations so that the desired dose was contained in 2.5 ml of solution. The drug solution was applied to a 100 mm^2 area of the hard palate contained by fitting parafilm over the drug solution lying on the palate."}, "[5]": {"system": "diastolic blood pressure", "test": "Arterial blood pressure change, intravenous infusion, anesthetized open-chest dogs", "format": "in vivo", "conditions": "for Blood Pressure, Mean ± S.E. (change in diastolic blood pressure): dose 4 times larger than CC50, i.v.; for effect on blood pressure: i.v.", "text": "To illustrate the structural specificity of the compounds of the invention, four close structural analogs of Compound I were synthesized and their activity compared to that of Compound I. In these tests dobutamine was used as a standard so that Compound I and the four structural analogs could be compared on a common basis. FIGS. 1 and 2 graphically compares dobutamine, Compound I and Compound V (the closest structural analog of dobutamine and Compound I).\nas §1\nBlood Pressure = change in diastolic blood pressure caused by a dose 4\ntimes larger than CC50 -"}, "[6]": {"system": "cardiac contractility", "test": "Inotropic response (LV dP/dt) when swallowed, conscious instrumented dogs", "format": "in vivo", "conditions": "5 mg/kg oral capsule", "method": "To test the effectiveness of Compound I when swallowed, five previously trained dogs, instrumented with a miniature pressure transducer for measurement of cardiac contractility were used. On different days the conscious dogs were tested with placebo, dobutamine (5 mg/kg) or Compound I (5 mg/kg).\nSeveral months prior to doing the procedure described above, a minature pressure transducer was mounted in the left ventricle of each dog's heart. The dogs were trained to swallow capsules and lie quietly for up to 3 hours. During this time, continuous recording of left ventricular pressure was made on a Grass polygraph. Also recorded was an electronically differentiated signal on the left ventricular pressure. This differential is referred to as LV dP/dt. This LV dP/dt is the rate that the left ventricle develops pressure and is accepted as an index of cardiac contractility.\nOn each day of testing the dogs were forced to swallow a gelatin capsule that was either empty (placebo), or contained dobutamine (5 mg/kg) or Compound I (5 mg/kg). Recordings were then made of cardiac contractility for 2 hours after the dog swallowed the capsule."}, "[7]": {"test": "Buccal absorption of ester relative to parent (buccal versus intravenous potency comparison)", "format": "in vivo, dogs", "conditions": "buccal versus i.v. potency, Compound I-A vs Compound I", "text": "Yet by the buccal route of administration, the ester was more than twice as potent as its parent. Therefore, the ester derivative was better absorbed through the buccal mucosa by a factor of more than eighteen times than was the parent compound."}, "[8]": {"conditions": "background; cited from earlier work"}, "[9]": {"system": "cardiac beta1 adrenergic receptors", "conditions": "background, Tuttle and Mills, Circ. Res. 36: 185, 1975; cited from earlier work"}}, "note": "“Also recorded” adds a separate entry of the source. Structures can show the parent of a compound that is named as a salt."}
{"smiles": "CC(CCc1cccc(C(N)=O)c1)NCCc1ccc(O)c(O)c1", "note": "(stereo not shown) [Compound I, N-[2-(3,4-dihydroxyphenyl)ethyl]-1-methyl-3-(3-carbamoylphenyl)propylaminehydrochloride]", "values": [{"measurement": "Intravenous infusion rate required to increase cardiac contractility by 50%", "setting": "[1]; Dog #1, i.v.", "value": 0.29, "unit": "µg/kg/min"}, {"measurement": "Intravenous infusion rate required to increase cardiac contractility by 50%", "setting": "[1]; Dog #2, i.v.", "value": 0.097, "unit": "µg/kg/min"}, {"measurement": "Blood levels compared with dobutamine", "setting": "[2]", "value": "higher blood levels than dobutamine"}, {"measurement": "concentration at 10 min", "setting": "[2]", "value": 417, "unit": "ng/mL"}, {"measurement": "concentration at 20 min", "setting": "[2]", "value": 451, "unit": "ng/mL"}, {"measurement": "concentration at 0.5 h", "setting": "[2]", "value": 874, "unit": "ng/mL"}, {"measurement": "dose relative to that of dobutamine required for equivalent inotropic effect", "setting": "[3]; i.v.", "value": "about a tenth"}, {"measurement": "times more potent than dobutamine", "setting": "[3]; i.v.", "value": "about ten"}, {"measurement": "Inotropic Potency Relative to Dobutamine, Mean ± S.E.", "setting": "[3]", "value": "9.1 ± 2.4"}, {"measurement": "Inotropic Response, Percent Change from Control, Mean ± S.E. (peak change in left ventricular dP/dt)", "setting": "[4]; 2 mg/kg", "value": "16.6 ± 6", "unit": "%"}, {"measurement": "Blood Pressure, Mean ± S.E. (change in diastolic blood pressure)", "setting": "[5]", "value": "5.3 ± 4.5"}, {"measurement": "effect on blood pressure", "setting": "[5]", "value": "no significant change in blood pressure; also recorded: no greater than that of dobutamine"}, {"measurement": "inotropic response when swallowed", "setting": "[6]", "value": "strong inotropic response; also recorded: effective when swallowed"}, {"measurement": "persistence of inotropic response when swallowed", "setting": "[6]", "value": "more than two"}]}
{"smiles": "CC(CCc1cccc(C(N)=O)c1)NCCc1ccc(OC(=O)C(C)C)c(OC(=O)C(C)C)c1", "note": "(stereo not shown) [Compound I-A, N[2-(3,4-diisobutyryloxyphenyl)ethyl]-1-methyl-3-(3-carbamoylphenyl)propylamine hydrochloride]", "values": [{"measurement": "factor of better absorption through the buccal mucosa than parent compound", "setting": "[7]", "value": "more than eighteen"}, {"measurement": "Dose Ratio (Compound I-A to Compound I)", "setting": "[1]; Dog #1, i.v.", "value": 9.6}, {"measurement": "Intravenous infusion rate required to increase cardiac contractility by 50%", "setting": "[1]; Dog #1, i.v.", "value": 2.8, "unit": "µg/kg/min"}, {"measurement": "Dose Ratio (Compound I-A to Compound I)", "setting": "[1]; Dog #2, i.v.", "value": 12.9}, {"measurement": "Intravenous infusion rate required to increase cardiac contractility by 50%", "setting": "[1]; Dog #2, i.v.", "value": 1.25, "unit": "µg/kg/min"}, {"measurement": "times less potent than parent catechol (Compound I)", "setting": "[1]; intravenous infusion", "value": "more than nine"}, {"measurement": "Inotropic Response, Percent Change from Control, Mean ± S.E. (peak change in left ventricular dP/dt)", "setting": "[4]; 1.39 mg/kg", "value": "61 ± 3", "unit": "%"}, {"measurement": "inotropic response, buccal", "setting": "[4]; anesthetized dogs", "value": "the most effective by this route"}, {"measurement": "buccal potency relative to Compound I", "setting": "[4]; molar basis, anesthetized dogs", "value": "more than twice"}]}
{"smiles": "CC(CCc1cccc(C(N)=O)c1)NCCc1ccc(OC(=O)C(C)(C)C)c(OC(=O)C(C)(C)C)c1", "note": "(stereo not shown) [Compound I-B]", "values": [{"measurement": "Inotropic Response, Percent Change from Control, Mean ± S.E. (peak change in left ventricular dP/dt)", "setting": "[4]; 1.39 mg/kg", "value": "13 ± 7", "unit": "%"}, {"measurement": "inotropic response, buccal", "setting": "[4]; anesthetized dogs", "value": "small response"}]}
{"smiles": "NC(=O)c1cccc(CCCNCCc2ccc(O)c(O)c2)c1", "note": "[Compound III]", "values": [{"measurement": "inotropic potency", "setting": "[3]; i.v.", "value": "potency was reduced"}, {"measurement": "Inotropic Potency Relative to Dobutamine, Mean ± S.E.", "setting": "[3]", "value": "1.4 ± 1"}, {"measurement": "Blood Pressure, Mean ± S.E. (change in diastolic blood pressure)", "setting": "[5]", "value": "22.3 ± 16.2"}, {"measurement": "effect on blood pressure", "setting": "[5]", "value": "undesired elevation in blood pressure"}]}
{"smiles": "NC(=O)c1cccc(CCNCCc2ccc(O)c(O)c2)c1", "note": "[Compound II]", "values": [{"measurement": "inotropic potency", "setting": "[3]; i.v.", "value": "not significantly better than that of dobutamine"}, {"measurement": "Inotropic Potency Relative to Dobutamine, Mean ± S.E.", "setting": "[3]", "value": "1.5 ± 0.1"}, {"measurement": "Blood Pressure, Mean ± S.E. (change in diastolic blood pressure)", "setting": "[5]", "value": "-8 ± 5"}, {"measurement": "effect on blood pressure", "setting": "[5]", "value": "no rise in blood pressure"}]}
{"smiles": "NC(=O)c1ccc(CCNCCc2ccc(O)c(O)c2)cc1", "note": "[Compound IV]", "values": [{"measurement": "Inotropic Potency Relative to Dobutamine, Mean ± S.E.", "setting": "[3]", "value": "1.38 ± 0.2"}, {"measurement": "Blood Pressure, Mean ± S.E. (change in diastolic blood pressure)", "setting": "[5]", "value": "26 ± 10"}, {"measurement": "effect on blood pressure", "setting": "[5]", "value": "the blood pressure side effect reappears"}]}
{"smiles": "CC(CCc1ccc(C(N)=O)cc1)NCCc1ccc(OC(=O)C(C)C)c(OC(=O)C(C)C)c1", "note": "(stereo not shown) [Compound V-A]", "values": [{"measurement": "Inotropic Response, Percent Change from Control, Mean ± S.E. (peak change in left ventricular dP/dt)", "setting": "[4]; 1.39 mg/kg", "value": "No response"}, {"measurement": "inotropic response, buccal", "setting": "[4]; anesthetized dogs", "value": "no response"}]}
{"smiles": "CC(CCc1ccc(C(N)=O)cc1)NCCc1ccc(O)c(O)c1", "note": "(stereo not shown) [Compound V]", "values": [{"measurement": "cardiac potency relative to that with carbamyl group in meta position (Compound I)", "setting": "[3]; i.v.", "value": "less than a third"}, {"measurement": "Inotropic Potency Relative to Dobutamine, Mean ± S.E.", "setting": "[3]", "value": "2.9 ± 0.3"}, {"measurement": "effect on blood pressure", "setting": "[5]", "value": "dangerous rise in blood pressure"}]}
{"smiles": "CC(CCc1ccc(O)cc1)NCCc1ccc(O)c(O)c1", "note": "(stereo not shown) [Dobutamine, reference compound]", "values": [{"measurement": "clearance from the blood", "setting": "[8]", "value": "rapidly cleared from the blood"}, {"measurement": "cardioselectivity", "setting": "[9]", "value": "cardioselective in its actions"}, {"measurement": "concentration at 10 min", "setting": "[2]", "value": 155, "unit": "ng/mL"}, {"measurement": "concentration at 20 min", "setting": "[2]", "value": 176, "unit": "ng/mL"}, {"measurement": "concentration at 0.5 h", "setting": "[2]", "value": 158, "unit": "ng/mL"}, {"measurement": "Inotropic Response, Percent Change from Control, Mean ± S.E. (peak change in left ventricular dP/dt)", "setting": "[4]; 5 mg/kg", "value": "2.7 ± 2", "unit": "%"}, {"measurement": "Blood Pressure, Mean ± S.E. (change in diastolic blood pressure)", "setting": "[5]", "value": "7.8 ± 4.5"}, {"measurement": "inotropic response when swallowed", "setting": "[6]", "value": "did not produce a response significantly better than the placebo"}]}
